Test results from patent US20240246964A1 (Arbutus Biopharma Corporation, priority 2021, published 2024).

biological target: human PD-L1 (Homo sapiens (Human), UniProt Q9NZQ7); assay: T cell activation luciferase reporter cell culture system (T Cell Activation Assay); assay type: cell-based; settings: luciferase reporter assay; PD-L1 aAPC/CHO-K1 cells with PD-1 effector Jurkat T cells
Sequence (Q9NZQ7 19-290): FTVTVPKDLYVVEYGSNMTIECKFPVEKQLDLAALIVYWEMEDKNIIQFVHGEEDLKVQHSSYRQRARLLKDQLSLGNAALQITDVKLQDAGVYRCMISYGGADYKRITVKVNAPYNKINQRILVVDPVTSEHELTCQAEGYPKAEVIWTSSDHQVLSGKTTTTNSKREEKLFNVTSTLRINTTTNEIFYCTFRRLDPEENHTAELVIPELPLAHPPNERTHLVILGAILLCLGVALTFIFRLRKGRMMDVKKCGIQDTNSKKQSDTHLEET

| SMILES | EC50 |
| --- | --- |
| COc1nc(-c2cncc(-c3cccc(NC(=O)c4cn(C)c(=O)n(C)c4=O)c3Cl)c2Cl)ccc1CNC[C@H](C)O [Compound 729, (S)—N-(2-Chloro-3-(4′-chloro-5-(((2-hydroxypropyl)amino)methyl)-6-methoxy-[2,3′-bipyridin]-5′-yl)phenyl)-1,3-dimethyl-2,4-dioxo-1,2,3,4-tetrahydropyrimidine-5-carboxamide] | 652 nM |
| COc1cc(-c2nccc(-c3cccc(-c4ccc(CNC5CCN(C(C)=O)CC5)c(OC)n4)c3Cl)c2Cl)ccc1CN1CCC(CO)CC1 [Example 508, 1-(4-(((6-(2-Chloro-3-(3-chloro-2-(4-((4-(hydroxymethyl)piperidin-1-yl)methyl)-3-methoxyphenyl)pyridin-4-yl)phenyl)-2-methoxypyridin-3-yl)methyl)amino)piperidin-1-yl)ethan-1-one] | 35.1 nM |
| COc1cc(-c2nccc(-c3cccc(-c4ccc(CN5CC6(CNC(=O)C6)C5)c(OC)n4)c3C#N)c2Cl)ccc1CN1CC2(CNC(=O)C2)C1 [Example 653, 2-(3-Chloro-2-(3-methoxy-4-((7-oxo-2,6-diazaspiro[3.4]octan-2-yl)methyl)phenyl)pyridin-4-yl)-6-(6-methoxy-5-((7-oxo-2,6-diazaspiro[3.4]octan-2-yl)methyl)pyridin-2-yl)benzonitrile] | 208 nM |
| COc1cc(-c2nccc(-c3cccc(-c4ccc(CN(C)C5CCOCC5)c(OC)n4)c3Cl)c2Cl)ccc1CNC1CCOCC1 [Example 468, N-((6-(2-chloro-3-(3-chloro-2-(3-methoxy-4-(((tetrahydro-2H-pyran-4-yl)amino)methyl)phenyl)pyridin-4-yl)phenyl)-2-methoxypyridin-3-yl)methyl)-N-methyltetrahydro-2H-pyran-4-amine] | 97.1 nM |
| COc1cc(-c2nccc(-c3cccc(-c4ccc(CNC5CCN(C(=O)CO)CC5)c(OC)n4)c3Cl)c2Cl)ccc1CNC1CCN(C(C)=O)CC1 [Example 533, 1-(4-(((6-(3-(2-(4-(((1-Acetylpiperidin-4-yl)amino)methyl)-3-methoxyphenyl)-3-chloropyridin-4-yl)-2-chlorophenyl)-2-methoxypyridin-3-yl)methyl)amino)piperidin-1-yl)-2-hydroxyethan-1-one] | 13.5 nM |
| COc1cc(-c2ccnc(-c3cccc(-c4ccc(CNC5CCOCC5)c(OC)n4)c3Cl)c2Cl)ccc1CNC1CCOCC1 [Example 623, N-(4-(3-Chloro-2-(2-chloro-3-(6-methoxy-5-(((tetrahydro-2H-pyran-4-yl)amino)methyl)pyridin-2-yl)phenyl)pyridin-4-yl)-2-methoxybenzyl)tetrahydro-2H-pyran-4-amine] | 222 nM |
| COc1nc(-c2cncc(-c3cccc(NC(=O)c4cn(C)c(=O)n(C)c4=O)c3Cl)c2Cl)ccc1CNC1CCN(C(C)=O)CC1 [Compound 723, N-(3-(5-(((1-Acetylpiperidin-4-yl)amino)methyl)-4′-chloro-6-methoxy-[2,3′-bipyridin]-5′-yl)-2-chlorophenyl)-1,3-dimethyl-2,4-dioxo-1,2,3,4-tetrahydropyrimidine-5-carboxamide] | 1850 nM |
| COc1cc(-c2nccc(-c3cccc(-c4ccc(CNCC5CCOCC5)c(OC)n4)c3Cl)c2Cl)ccc1CNCC1CCOCC1 [Example 330, 1-(6-(2-Chloro-3-(3-chloro-2-(3-methoxy-4-((((tetrahydro-2H-pyran-4-yl)methyl)amino)methyl)phenyl)pyridin-4-yl)phenyl)-2-methoxypyridin-3-yl)-N-((tetrahydro-2H-pyran-4-yl)methyl)methanamine] | 73.8 nM |
| COc1cc(-c2nccc(-c3cccc(-c4cc(Cl)c(CNC[C@@H]5CCC(=O)N5)c(OC)n4)c3Cl)c2Cl)cc2c1CN(CCO)CC2 [Cmpd 124, (S)-5-((((4-chloro-6-(2-chloro-3-(3-chloro-2-(2-(2-hydroxyethyl)-8-methoxy-1,2,3,4-tetrahydroisoquinolin-6-yl)pyridin-4-yl)phenyl)-2-methoxypyridin-3-yl)methyl)amino)methyl)pyrrolidin-2-one] | 36.3 nM |
